From PubChem BioAssay (NCI) come the findings set out here.

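Test compounds were applied to cells in 96-well plates for 48 hours at 5 doses. Here, GI50 denotes the concentration required for 50% inhibition of growth. At the TGI there is no net growth.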

Common to all, as to assay: DTP human tumour cell line panel, 48 h
For experiment [1], the system named is NCI-H23 lung.
In experiment [2] the test system is RXF 393 renal.
The test system of experiment [3] is OVCAR-5 ovarian.
For experiment [4], the system named is SNB-19 CNS.
The subject of experiment [5] is SF-539 CNS.
For experiment [6], the system named is OVCAR-4 ovarian.
Experiment [7] concerns SW-620 colon.
Experiment [8] deals with SNB-75 CNS.
Experiment [9] has as its system MDA-MB-231 breast.
Experiment [10] deals with M14 melanoma.

A word on the GI50: it is the concentration at which growth is held to half of that of the control. In general, TGI refers to the concentration at which net growth stops. Higher therefore signals lower sensitivity of the cells. For the molecule `O=C(N/N=C\c1cc(Br)ccc1O)c1ccncc1`, the GI50 in experiment [1] is 3.61 µM; in experiment [2], 1.89 µM; in [3], 3.76 µM; in experiment [4], 5.65 µM; in experiment [5], 2.93 µM; in [6], 0.814 µM. Besides, the GI50 in [7] is 2.66 µM; in experiment [8] it was 4.83 µM; in [9], 5.88 µM; in [10], 2.45 µM. The TGI is more than 100 µM in experiment [1]; more than 100 µM in experiment [2]; more than 100 µM in [3]; more than 100 µM in [4]; 48.7 µM in experiment [5]; 33.3 µM in [6]. Further, the TGI was more than 100 µM in experiment [7], 51.1 µM in experiment [8], more than 100 µM in experiment [9] and 26 µM in [10].

`OCCCCC#Cc1ccccc1C#Cc1cccc(O)c1`: the GI50 is 18 µM in experiment [1]; 2.3 µM in experiment [2]; 16.9 µM in [3]; 15.5 µM in experiment [4]; 17.5 µM in experiment [5]; 16.1 µM in experiment [6]. In addition, the GI50 in experiment [7] was 17.5 µM; in experiment [8] it was 16.1 µM; in experiment [9] it was 12.8 µM; in [10], 17.4 µM. Moreover, the TGI turned out to be 36.1 µM in [1]; 13.9 µM in experiment [2]; 32.1 µM in [3]; 32.8 µM in experiment [4]; 35.8 µM in [5]; 32.1 µM in experiment [6]. In addition, the TGI is 33.3 µM in experiment [7], 38.1 µM in experiment [8], 26.7 µM in experiment [9] and 35.1 µM in [10].

Consider `COc1cc2cn3c4ccc(O)cc4[nH]c(=O)c3c2cc1OC`, for which the GI50 was 0.0716 µM in experiment [1]; less than 0.0122 µM in [2]; 0.269 µM in experiment [3]; 0.0245 µM in experiment [4]; 0.0176 µM in [5]; 0.0594 µM in experiment [6]. Besides, the GI50 was less than 0.0119 µM in experiment [7], 0.0197 µM in [8], 0.0516 µM in experiment [9] and 0.0206 µM in [10]. Also, the TGI was determined as 1.9 µM in [1]; 1.49 µM in experiment [2]; 2.36 µM in [3]; 1.94 µM in experiment [4]; 0.296 µM in experiment [5]; 2.11 µM in experiment [6]. In addition, the TGI in [7] turned out to be 1.83 µM; in experiment [8], 1.47 µM; in experiment [9], 1.79 µM; in experiment [10] it was 1.64 µM.

As for `Cc1[nH]n(-c2cccc(Cl)c2)c(=O)c1/C=C1\C=Nc2ccc(Br)cc21`, the GI50 in experiment [1] is 6.65 µM; in experiment [2], 1.86 µM; in experiment [3], 3.1 µM; in experiment [4], 5.79 µM; in [5], 4.32 µM; in experiment [6], 1.59 µM. The GI50 was 3.58 µM in experiment [7], 1.25 µM in [8], 3.4 µM in experiment [9] and 14.1 µM in [10]. Moreover, the TGI was determined as 26.4 µM in experiment [1]; 4.01 µM in experiment [2]; 10.2 µM in experiment [3]; 25.7 µM in [4]; 16.7 µM in experiment [5]; 2.95 µM in experiment [6]. In addition, the TGI in experiment [7] was more than 100 µM; in [8] it was 3.37 µM; in [9], 15.3 µM; in [10], more than 100 µM.

Take `CC(=O)O[C@@H]1C[C@]2(C(C)C)O[C@@]1(C)[C@@H]1CCC(C)=C1[C@@H]2OC(=O)/C=C/c1ccccc1`: the GI50 in [1] is 35.3 µM; in experiment [2] it was 8.83 µM; in experiment [3], more than 100 µM; in [4], 85.3 µM; in experiment [5], more than 100 µM; in [6], 11.6 µM. Besides, the GI50 is 39 µM in experiment [7], 27.9 µM in experiment [8], 49.3 µM in experiment [9] and 40.1 µM in experiment [10]. Besides, the TGI was more than 100 µM in [1]; 65.9 µM in experiment [2]; more than 100 µM in experiment [3]; more than 100 µM in experiment [4]; more than 100 µM in [5]; more than 100 µM in experiment [6]. Moreover, the TGI in [7], in experiment [8], in experiment [9] and in experiment [10] was more than 100 µM each time.

Consider `NC(=O)C(=CNc1nc(-c2ccc(Cl)c(Cl)c2)cs1)C(N)=O`, for which the GI50 in experiment [1] was more than 100 µM; in experiment [2] it was more than 100 µM; in [3], more than 100 µM; in [4] it was more than 100 µM; in [5] it was 46.4 µM; in experiment [6] it was 62.4 µM. Also, the GI50 is more than 100 µM in experiment [7], more than 100 µM in experiment [8], 60.8 µM in experiment [9] and more than 100 µM in experiment [10]. For the same molecule, the TGI in [1], in experiment [2], in experiment [3], in [4], in experiment [5] and in experiment [6] was more than 100 µM in each case. In addition, the TGI in experiment [7], in experiment [8], in experiment [9] and in experiment [10] was more than 100 µM each time.

Take `COc1cc(NC(C)CCCN)c2nccc(C)c2c1OC` (stereo not drawn): the GI50 in [1] is 4.21 µM; in experiment [2], 17.1 µM; in experiment [3], 16.1 µM; in experiment [5], 10.2 µM; in experiment [6], 2.7 µM; in [7], 3.54 µM. The GI50 in experiment [8] was 14.1 µM; in [9] it was 8.18 µM; in [10], 2.97 µM. Besides, the TGI in experiment [1] came to 22 µM; in [2], 40.3 µM; in experiment [3] it was 42.1 µM; in experiment [5], 22.5 µM; in [6], 10.2 µM; in experiment [7], 15 µM. The values for the TGI in experiment [8], in [9] and in [10] were 29.4 µM, 25.3 µM and 12.7 µM, respectively.
